In patent US6103767A, “Physiologically active substances TKR1785's, process for the preparation thereof, and microbe” (Takara Shuzo Co., Ltd., priority 1996, dated 2000):
Values after ≈ are worked out from the molar mass of the structure shown.

How the values were obtained:
[1] = tested on: Aspargillus fumigatus TIMM1776; assay: Antifungal activity, liquid medium dilution method; type: cell-based; details: Aspargillus fumigatus TIMM1776, BHI medium; for IC50: read-out: 50% inhibitory concentration (in parentheses); for MIC: read-out: Minimal inhibitory concentration
Description: (§1) The antifungal activity of the above substance TKR1785 against various microorganisms was investigated. Using the liquid medium dilution method, the concentration which caused substantially complete Inhibition of growth was determined as minimal inhibitory concentration (μg/ml). The concentration causing a partial inhibition of growth was also determined as 50% inhibitory concentration (μg/ml) and is shown in parentheses of table 2. In the table, YNBG represents a medium containing 0.67% of yeast nitrogen base (Difco) and 1% of glucose. BHI represents a medium containing 0.5% of brain heart infusion bouillon (Nissui Pharmaceutical). YNBG-Tween represents a medium containing 0.67% of yeast nitrogen base, 0.5% bactocasitone, 2% of glucose, and 1% of Tween 40.

[2] = tested on: Candida albicans TIMM0136; assay: Antifungal activity, liquid medium dilution method; type: cell-based; details: Candida albicans TIMM0136, YNBG medium; for IC50: partial inhibition of growth, read-out: 50% inhibitory concentration (in parentheses); for MIC: substantially complete inhibition of growth, read-out: Minimal inhibitory concentration
Description: as §1

Candida kefir TIMM0301 = assay: Antifungal activity, liquid medium dilution method; type: cell-based; details: Candida kefir TIMM0301, YNBG medium; for MIC: read-out: Minimal inhibitory concentration
Description: as §1

[3] = tested on: Cryptococcus neoformans TIMM0354; assay: Antifungal activity, liquid medium dilution method; type: cell-based; details: Cryptococcus neoformans TIMM0354, YNBG medium; for IC50: read-out: 50% inhibitory concentration (in parentheses); for MIC: read-out: Minimal inhibitory concentration
Description: as §1

ICR mice = assay: Toxicity in mice, intraperitoneal; type: in vivo; details: intraperitoneally, 50 mg/kg
[4] = tested on: Malassezia furfur TIMM2782; assay: Antifungal activity, liquid medium dilution method; type: cell-based; details: Malassezia furfur TIMM2782, YNBG-Tween medium; read-out: 50% inhibitory concentration (in parentheses)
Description: as §1

[5] = tested on: phospholipase A2 (derived from porcine pancreas); assay: Phospholipase A2 inhibitory activity ([14C]palmitic acid release from [14C]phosphatidylcholine); type: biochemical
Description: (§2) The inhibitory activity of TKR1785-I against phospholipase A2 (derived from porcine pancreas) and leukotriene (LT) C4 synthase (derived from the guinea-pig lung), which are enzymes related to the immune system, was determined. Phospholipase A2 activity was assayed for a hexane extract under acidic conditions by determining the [^14 C]palmitic acid released from [^14 C]phosphatidylcholine. LTC4 synthase activity was assayed by determining the yield of LTC4 from LTA4 by the RIA method.

[6] = tested on: leukotriene (LT) C4 synthase (derived from the guinea-pig lung); assay: LTC4 synthase inhibitory activity (yield of LTC4 from LTA4 by RIA); type: biochemical
Description: as §2

[7] = tested on: Mixed lymphocyte reaction (C57BL/6 responder cells, BALB/c stimulator cells); assay: Mixed lymphocyte reaction (MLR) inhibitory activity, 3H-thymidine uptake; type: cell-based, mice; details: mouse spleen cells, 3H-thymidine uptake vs sample-free group, read-out: 50% inhibitory concentration, MLR-inhibitory activity
Description: From C57BL/6 and BALB/c mice, the spleen was isolated and homogenized in a medium to provide a cell suspension. The cell suspension derived from C57BL/6 mice was passed through a nylon wool column to prepare a T cell-rich fraction (responder cells). The BALB/c-derived cell suspension was irradiated with X-rays to prepare stimulator cells. The responder cells and stimulator cells were mixed in a ratio of 1:1 and incubated in a CO2 incubator for 4 days. Following addition of 3H-thymidine, the cells were further culturen overnight. The cells were then recovered and the amount of ^3 H-thymidine uptake was determined. The samples (500, 125, 31.2, and 7.8 μg/ml solutions of dimethyl sulfoxide diluted with the medium) were respectively added in a proportion of 0.5% at mixing the responder cells with the stimulator cells to final concentrations of 25 to 0.039 μg/ml. The inhibitory activity was determined by comparison with the 3H-thymidine uptake in the sample-free group.

[8] = Solubility in various solvents; type: physicochemical

Structure (SMILES) | IC50 [1] [µg/mL] | MIC [1] [µg/mL] | IC50 [2] [µg/mL] | MIC [2] [µg/mL] | IC50 (Candida kefir TIMM0301; read-out: 50% inhibitory concentration (in parentheses)) [µg/mL] | MIC (Candida kefir TIMM0301) [µg/mL] | IC50 [3] [µg/mL] | MIC [3] [µg/mL] | Toxic response (ICR mice) | IC50 [4] [µg/mL] | Inhibition (%) ([5]; Phospholipase A2, test concentration 10 μg/ml) | Inhibition (%) ([5]; Phospholipase A2, test concentration 100 μg/ml) | Inhibition (%) ([6]; test concentration 30 μg/ml) | Inhibition (%) ([6]; test concentration 300 μg/ml) | IC50 [7] [µg/mL] | Solubility in chloroform and hexane ([8]; chloroform, hexane) | Solubility in methanol and water ([8]; methanol, water)
CCCCCCCCCCCCCC(O)CC(O)C(N)CC(=O)N[C@H](C(=O)NC(CO)CO)[C@@H](C)CC (single isomer, unassigned) [TKR1785-II] | 25 (≈ 47 µM) | 50 (≈ 94 µM) | 6.25 (≈ 11.8 µM) | 12.5 (≈ 23.5 µM) | 6.25 (≈ 11.8 µM) | 12.5 (≈ 23.5 µM) | 6.25 (≈ 11.8 µM) | 12.5 (≈ 23.5 µM) | no toxic response was found | – | – | – | – | – | – | – | –
CCCCCCCCCCCCCC(O)CC(O)C(N)CC(=O)N[C@H](C(=O)NC(CO)CO)C(C)C (single isomer, unassigned) [TKR1785-I] | 3.13 (≈ 6.05 µM) | 25 (≈ 48.3 µM) | 6.25 (≈ 12.1 µM) | 12.5 (≈ 24.1 µM) | – | 6.25 (≈ 12.1 µM) | 3.13 (≈ 6.05 µM) | 6.25 (≈ 12.1 µM) | no toxic response was found | 12.5 (≈ 24.1 µM) | 33 | 92 | 21 | 98 | 0.41 (≈ 0.792 µM) | only sparingly soluble in chloroform and hexane | soluble in methanol and water
